Data taken from PubChem BioAssay AID2060343 (Molecular Pharmacology Branch, DTP, NCI, 2025).

Test system: 138582-337-R-J1-PDC spheroids with HUVEC/MSC, viability
Assay: Anticancer human tumor 138582-337-R-J1-PDC patient-derived Merkel cell tumor cell line growth inhibition [IpAb]
Settings: for IC50: curve of first compound; for viability, T/C: stronger effect = lower value
Text: Combinatorial screen of targeted agents with ipatasertib and abemaciclib in multi-cell type tumor spheroids
A high-throughput screen of multi-cell type tumor spheroids was designed to identify active combinations of targeted small molecules and ipatasertib or abemaciclib. Complex spheroids include a stromal component modeled by human endothelial cells (HUVEC) and fibroblasts modeled by human mesenchymal stem cells (MSCs). The concentration ranges selected for each drug and investigational agent were based upon clinically achievable concentrations if the clinical Cmax of the agent was known.
Compounds. The drugs and investigational agents: ipatasertib (NSC767898), abemaciclib(NSC768073), selumetinib (NSC741078), trametinib (758246), adavosertib (NSC754352), everolimus (NSC733504), sapanisertib (NSC764658), vemurafenib (NSC761431), venetoclax (NSC766270), copanlisib (NSC809693), apelisib (NSC765974), palbociblib (NSC758247), vemurafenib (NSC761431), dabrafenib (NSC764134), ravoxertinib (NSC781343), BMS-387032 (NSC767048), sotorasib (NSC818433), talazoparib (NSC767125) and afursertib (NSC778305), were obtained from the National Cancer Institute (NCI) Developmental Therapeutics Program Chemical Repository. The FDA-approved anticancer drug set is available from the NCI Developmental Therapeutics Program. […] The stock solutions were prepared in dimethyl sulfoxide (DMSO, Sigma-Aldrich, St. Louis, MO, cat. D2650) at 800-fold the tested concentration and stored at -70 degrees C prior to their use. All drugs and investigational agents were tested over a range starting from a high concentration at or near the clinical Cmax and decreasing in half-log increments. If the clinical Cmax for an agent had not been determined, the highest concentration tested was 10 microM.
NCI60 Cell Culture. NCI60 cell lines were obtained from the NCI Developmental Therapeutics Program Tumor Repository. For each lot of cells, the Repository performed Applied Biosystems AmpFLSTR Identifiler testing with PCR amplification to confirm consistency with the published Identifier STR profile for each cell line. Cells were kept in continuous culture for no more than 20 passages. The optimal seeding densities for each of the cell lines at each time point assessed were determined prior to performing the concentration response studies. Briefly, the NCI60 human tumor lines were grown as monolayers in RPMI 1640 medium supplemented with 10% FBS and 2 mmol/L L-glutamine.
An additional 9 lines were from the NCI60 cell line panel including MDA-MB-231 breast carcinoma, MDA-MB-468 breast carcinoma, MCF7 breast carcinoma, Hs578T breast carcinoma, MALME-3M melanoma, SK-MEL-2 melanoma, SK-OV-3 ovarian carcinoma, DU-145 prostate carcinoma, PC-3 prostate carcinoma, all cell lines along with major genetic alterations are listed on Table 2. Pooled donor human umbilical vein endothelial cells (HUVEC, Lonza, cat. CC-2519) and human mesenchymal stem cells (hMSC, Lonza, cat. PT-2501) were purchased from Lonza (Walkersville, MD).
PDMR cell lines were grown in complete medium (DC medium): Dulbecco's modified Eagle's medium (DMEM)/F12 supplemented with 5% fetal bovine serum (FBS), 2 mM L-glutamine, 100 U/mL penicillin and 100 µg/ml streptomycin, 0.4 µg/ml hydrocortisone, 10 ng/ml epidermal growth factor (EGF) recombinant human protein, 24 µg/mL adenine, and 0.1 mg/mL primocin. During culture from frozen stock vials, PDMR cells were cultured in the same medium containing 10 µM Y-27632 (see Table 3). The PDCs were cultured in complete DMEM/F12 media without 10 microM Y-27632 dihydrochloride for at least two passages prior to the screen. The pooled donor HUVEC and hMSC were cultured in endothelial cell growth medium 2 (PromoCell, Heidelberg, Germany, cat. C-22011) and mesenchymal stem cell growth medium 2 (PromoCell, cat. C-28009), respectively. For all experiments, HUVEC and hMSC were used at passages </=5.
[…]
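Note: spheroids exposed to compounds for seven days.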
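Throughout, for viability, T/C: 100% = DMSO vehicle control viability.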

What does the source list for `CC(=O)c1c(C)c2cnc(Nc3ccc(N4CCNCC4)cn3)nc2n(C2CCCC2)c1=O` + CCN1CCN(Cc2ccc(Nc3ncc(F)c(-c4cc(F)c5nc(C)n(C(C)C)c5c4)n3)nc2)CC1?
IC50 (second compound 0.01 µM): > 300 nM; IC50 (second compound 0.0316 µM): > 300 nM; IC50 (second compound 0.1 µM): > 300 nM; IC50 (second compound 0.316 µM): > 300 nM; IC50 (second compound 1 µM): > 300 nM; viability, T/C (second compound 0.01 µM, first compound 0.000949 µM): 97.9%; viability, T/C (second compound 0.01 µM, first compound 0.003 µM): 91.1%; viability, T/C (second compound 0.01 µM, first compound 0.00949 µM): 88.1%; viability, T/C (second compound 0.01 µM, first compound 0.03 µM): 92.5%; viability, T/C (second compound 0.01 µM, first compound 0.0949 µM): 93.4%; viability, T/C (second compound 0.01 µM, first compound 0.3 µM): 86.6%; viability, T/C (second compound 0.0316 µM, first compound 0.000949 µM): 91.2%; viability, T/C (second compound 0.0316 µM, first compound 0.003 µM): 89.5%; viability, T/C (second compound 0.0316 µM, first compound 0.00949 µM): 79.7%; viability, T/C (second compound 0.0316 µM, first compound 0.03 µM): 89%; viability, T/C (second compound 0.0316 µM, first compound 0.0949 µM): 88.3%; viability, T/C (second compound 0.0316 µM, first compound 0.3 µM): 81.8%; viability, T/C (second compound 0.1 µM, first compound 0.000949 µM): 84.6%; viability, T/C (second compound 0.1 µM, first compound 0.003 µM): 91.5%; viability, T/C (second compound 0.1 µM, first compound 0.00949 µM): 85.1%; viability, T/C (second compound 0.1 µM, first compound 0.03 µM): 88.7%; viability, T/C (second compound 0.1 µM, first compound 0.0949 µM): 82%; viability, T/C (second compound 0.1 µM, first compound 0.3 µM): 75%; viability, T/C (second compound 0.316 µM, first compound 0.000949 µM): 93.6%; viability, T/C (second compound 0.316 µM, first compound 0.003 µM): 86.6%; viability, T/C (second compound 0.316 µM, first compound 0.00949 µM): 85.3%; viability, T/C (second compound 0.316 µM, first compound 0.03 µM): 79.7%; viability, T/C (second compound 0.316 µM, first compound 0.0949 µM): 87.6%; viability, T/C (second compound 0.316 µM, first compound 0.3 µM): 79.7%; viability, T/C (second compound 1 µM, first compound 0.000949 µM): 99.4%; viability, T/C (second compound 1 µM, first compound 0.003 µM): 102%; viability, T/C (second compound 1 µM, first compound 0.00949 µM): 93.3%; viability, T/C (second compound 1 µM, first compound 0.03 µM): 88.6%; viability, T/C (second compound 1 µM, first compound 0.0949 µM): 92.6%; viability, T/C (second compound 1 µM, first compound 0.3 µM): 84.7%
